Experiment [1] has as its system T47D. As to the kind of experiment: Cytotoxicity against human T47D cells measured after 2 days by MTT assay. It is filed as functional, cell-based. Conditions: 48 h.
In experiment [2] the target is T1, DNA topoisomerase 1 (Homo sapiens) (UniProt P11387).
T1 sequence (whole entry): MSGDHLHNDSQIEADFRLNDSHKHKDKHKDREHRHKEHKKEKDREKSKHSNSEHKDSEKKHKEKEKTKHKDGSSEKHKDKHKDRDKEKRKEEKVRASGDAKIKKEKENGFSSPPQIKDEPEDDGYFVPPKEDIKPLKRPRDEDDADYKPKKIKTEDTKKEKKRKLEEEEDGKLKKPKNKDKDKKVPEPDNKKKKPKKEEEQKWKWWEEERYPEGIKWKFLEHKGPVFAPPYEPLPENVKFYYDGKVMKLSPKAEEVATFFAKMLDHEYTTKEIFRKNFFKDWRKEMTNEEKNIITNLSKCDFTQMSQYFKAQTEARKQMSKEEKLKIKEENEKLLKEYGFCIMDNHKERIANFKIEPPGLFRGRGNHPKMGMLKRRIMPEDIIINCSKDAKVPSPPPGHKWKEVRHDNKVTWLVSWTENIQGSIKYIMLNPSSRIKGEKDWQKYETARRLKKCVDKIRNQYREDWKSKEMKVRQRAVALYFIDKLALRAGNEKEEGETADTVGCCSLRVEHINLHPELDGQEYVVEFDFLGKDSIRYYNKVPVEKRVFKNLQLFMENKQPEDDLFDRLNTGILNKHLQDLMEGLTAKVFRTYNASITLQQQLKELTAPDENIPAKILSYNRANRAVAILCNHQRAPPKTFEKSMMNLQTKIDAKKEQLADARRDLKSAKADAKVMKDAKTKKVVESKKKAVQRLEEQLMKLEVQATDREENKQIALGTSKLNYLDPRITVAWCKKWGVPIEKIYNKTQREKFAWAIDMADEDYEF
As to the kind of experiment: Potency index, ratio of compound activity to CPT activity for inhibition of recombinant human topoisomerase 1 at 20 uM.

Experiment [3] concerns the target DNA topoisomerase 2-alpha (Homo sapiens) (UniProt P11388). Description: Inhibition of recombinant human topoisomerase 2alpha assessed as relaxation of supercoiled plasmid DNA pBR322 at 20 uM incubated for 30 mins by agarose gel electrophoresis.
In experiment [4] the target is T1, DNA topoisomerase 1 (Homo sapiens). As to the kind of experiment: Inhibition of recombinant human topoisomerase 1 assessed as relaxation of supercoiled plasmid DNA pBR322 at 20 uM incubated for 30 mins by agarose gel electrophoresis.
Experiment [5] has the same target. Description: Potency index, ratio of compound activity to CPT activity for inhibition of recombinant human topoisomerase 1 at 100 uM.
Experiment [6] addresses DNA topoisomerase 2-alpha (Homo sapiens) (UniProt P11388). As to the kind of experiment: Potency index, ratio of compound activity to etoposide activity for inhibition of recombinant human topoisomerase 2alpha at 100 uM.
For experiment [7], the target named is T1, DNA topoisomerase 1 (Homo sapiens). As to the kind of experiment: Inhibition of recombinant human topoisomerase 1 assessed as relaxation of supercoiled plasmid DNA pBR322 at 100 uM incubated for 30 mins by agarose gel electrophoresis.
Experiment [8] relates to HeLa. As to the kind of experiment: Cytotoxicity against human HeLa cells measured after 2 days by MTT assay. Type of experiment: functional, cell-based. Conditions: 48 h.
The subject of experiment [9] is HCT-15. Description: Cytotoxicity against human HCT15 cells measured after 2 days by MTT assay. It is filed as functional, cell-based. Conditions: HCT-15, 48 h.
The target in experiment [10] is DNA topoisomerase 2-alpha (Homo sapiens) (UniProt P11388). As to the kind of experiment: Inhibition of recombinant human topoisomerase 2alpha assessed as relaxation of supercoiled plasmid DNA pBR322 at 100 uM incubated for 30 mins by agarose gel electrophoresis.
DNA topoisomerase 2-alpha (Homo sapiens), sequence (P11388 whole entry): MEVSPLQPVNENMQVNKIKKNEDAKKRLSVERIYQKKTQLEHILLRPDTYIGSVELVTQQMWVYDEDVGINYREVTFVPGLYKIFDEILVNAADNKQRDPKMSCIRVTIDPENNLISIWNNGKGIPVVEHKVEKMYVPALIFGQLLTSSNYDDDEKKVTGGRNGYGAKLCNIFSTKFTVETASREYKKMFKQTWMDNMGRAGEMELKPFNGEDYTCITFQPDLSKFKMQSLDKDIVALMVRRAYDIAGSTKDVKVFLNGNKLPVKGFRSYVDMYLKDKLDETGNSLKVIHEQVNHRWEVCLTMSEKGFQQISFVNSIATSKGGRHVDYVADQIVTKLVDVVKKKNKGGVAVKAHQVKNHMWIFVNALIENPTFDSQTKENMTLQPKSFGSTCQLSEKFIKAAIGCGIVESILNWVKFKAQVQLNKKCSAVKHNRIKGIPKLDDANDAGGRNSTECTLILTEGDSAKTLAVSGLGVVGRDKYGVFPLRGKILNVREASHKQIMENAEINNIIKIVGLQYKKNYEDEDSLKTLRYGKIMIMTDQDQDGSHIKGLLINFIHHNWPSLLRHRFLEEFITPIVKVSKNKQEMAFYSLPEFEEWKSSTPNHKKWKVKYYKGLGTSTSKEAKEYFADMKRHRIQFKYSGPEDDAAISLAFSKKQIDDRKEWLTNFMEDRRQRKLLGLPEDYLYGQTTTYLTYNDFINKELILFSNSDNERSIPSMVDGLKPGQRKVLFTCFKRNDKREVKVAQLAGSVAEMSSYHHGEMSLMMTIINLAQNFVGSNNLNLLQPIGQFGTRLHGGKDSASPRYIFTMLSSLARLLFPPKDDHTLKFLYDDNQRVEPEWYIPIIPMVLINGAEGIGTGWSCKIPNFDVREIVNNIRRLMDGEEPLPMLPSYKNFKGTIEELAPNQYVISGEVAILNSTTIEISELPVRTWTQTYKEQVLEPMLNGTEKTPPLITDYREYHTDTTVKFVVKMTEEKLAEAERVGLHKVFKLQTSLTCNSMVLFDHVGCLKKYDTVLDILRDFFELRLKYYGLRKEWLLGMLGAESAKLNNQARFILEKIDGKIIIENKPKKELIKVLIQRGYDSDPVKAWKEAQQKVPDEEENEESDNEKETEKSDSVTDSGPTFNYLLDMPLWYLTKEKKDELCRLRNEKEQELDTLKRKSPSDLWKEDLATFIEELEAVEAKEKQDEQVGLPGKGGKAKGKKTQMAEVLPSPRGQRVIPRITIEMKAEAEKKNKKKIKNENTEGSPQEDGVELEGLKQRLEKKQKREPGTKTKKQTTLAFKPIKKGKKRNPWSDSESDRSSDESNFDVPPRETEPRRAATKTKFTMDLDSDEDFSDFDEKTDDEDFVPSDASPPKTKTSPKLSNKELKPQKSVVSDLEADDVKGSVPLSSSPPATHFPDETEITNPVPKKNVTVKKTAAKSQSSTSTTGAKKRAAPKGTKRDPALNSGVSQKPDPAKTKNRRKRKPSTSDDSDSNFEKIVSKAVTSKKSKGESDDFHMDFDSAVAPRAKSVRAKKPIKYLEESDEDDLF
For experiment [11] the target is unchanged. Description: Potency index, ratio of compound activity to etoposide activity for inhibition of recombinant human topoisomerase 2alpha at 20 uM.
For experiment [12] the target is unchanged. Description: Inhibition of recombinant human topoisomerase 2alpha mediated decatenation using kDNA as substrate at 50 uM incubated for 30 mins by agarose gel electrophoresis.
Experiment [13] shares this target. Description: Inhibition of recombinant human topoisomerase 2alpha mediated decatenation using kDNA as substrate at 100 uM incubated for 30 mins by agarose gel electrophoresis.

A value given as a limit tells only on which side of the number the result lay.

The IC50 is the concentration at which inhibition is half-maximal. Usually inhibition stands for the share of the control response that was lost under treatment.

For the compound `Cc1ccc2nc(-c3ccccc3C(F)(F)F)[nH]c(=O)c2c1`, the IC50 is over 50 µM in experiment [1], 2.45 µM in [8] and over 50 µM in experiment [9]. For the same compound, the Ratio in experiment [2] turned out to be 0.65; in experiment [5], 1.01; in [6], 0.09. The inhibition in [3] came out at 0%; in experiment [4], 21.1%; in [7], 72%; in experiment [10] it was 7.2%.
Take `Cc1cccc(-c2nc3ccc(C)cc3c(=O)[nH]2)c1`: the IC50 in experiment [1], in experiment [8] and in experiment [9] was over 50 µM throughout. Moreover, the Ratio worked out at 0.39 in experiment [2], 1.06 in experiment [5] and 0.05 in experiment [6]. Besides, the inhibition in experiment [4] amounted to 12.7%; in experiment [7], 75.7%; in [10] it was 4.6%.
As to `Cc1ccc2nc(-c3ccccc3N(C)C)[nH]c(=O)c2c1`, the values for the half-maximal inhibitory concentration (IC50) in [1], in experiment [8] and in experiment [9] were 26.7 µM, 14 µM and over 50 µM, respectively. In addition, the results for the Ratio in experiment [2], in experiment [5] and in experiment [6] were 1.22, 1.03 and 0.09, respectively. In addition, the inhibition in experiment [4] was 21.1%; in experiment [7], 82.9%; in experiment [10], 7.2%.
As for `COc1cccc(-c2nc3ccc(C)cc3c(=O)[nH]2)c1`, the results for the IC50 in [1], in [8] and in experiment [9] were over 50 µM, over 50 µM and 32 µM, respectively. Moreover, the inhibition in [3] amounted to 19%; in [4], 0%; in experiment [7], 71.8%; in [10], 65.2%. Besides, the Ratio in [11] was 0.38; in experiment [5], 1.01; in experiment [6] it was 0.81.
In the case of `Cc1cccc(-c2nc3cc(C)ccc3c(=O)[nH]2)c1`, the IC50 is over 50 µM in experiment [1], 11.2 µM in experiment [8] and 21.1 µM in experiment [9]. For the same compound, the Ratio in experiment [2] stood at 1.83; in experiment [11] it was 0.5; in experiment [5], 1.29; in experiment [6], 0.5. Further, the inhibition in [3] is 24.9%; in experiment [4], 56.3%; in experiment [7] it was 100%; in experiment [10], 40.4%.
For `O=c1[nH]c(-c2cccc3ccccc23)nc2ccc(N3CCOCC3)cc12`, the IC50 is over 50 µM in experiment [1], 0.12 µM in [8] and over 50 µM in [9]. For the same compound, the Ratio in experiment [2] is 0.62; in [11] it was 0.78; in [5] it was 1.24; in [6] it was 0.58. For the same compound, the inhibition worked out at 39.2% in experiment [3]; 3.2% in [12]; 10.7% in experiment [4]; 83.8% in experiment [13]; 100% in experiment [7]; 46.4% in [10].
Consider `Cc1ccc2c(=O)[nH]c(-c3ccccc3C)nc2c1`, for which the IC50 in experiment [1] was over 50 µM; in experiment [8] it was over 50 µM; in experiment [9], 11.9 µM. For the same compound, the Ratio is 1.27 in [2], 0.62 in experiment [11], 1.29 in experiment [5] and 0.77 in experiment [6]. In addition, the inhibition in experiment [3] amounted to 30.8%; in [12], 0%; in experiment [4] it was 39.2%; in experiment [13], 32.4%; in [7], 100%; in experiment [10], 61.4%.
On to `Cc1ccc2c(=O)[nH]c(-c3ccccc3N(C)C)nc2c1`, for which the values for the IC50 in [1], in [8] and in [9] were 4.43 µM, 43.8 µM and 12.8 µM, respectively. Also, the Ratio in experiment [2] worked out at 0.19; in experiment [11], 0.84; in [5] it was 0.19; in [6], 0.35. Moreover, the inhibition in experiment [3] worked out at 41.9%; in experiment [4] it was 5.3%; in experiment [7], 82.1%; in [10] it was 28.1%.
Regarding `Cc1ccc2nc(-c3cccc(C(F)(F)F)c3)[nH]c(=O)c2c1`, the IC50 in [1], in [8] and in experiment [9] was over 50 µM in each case. Moreover, the Ratio was found to be 0.13 in [2], 0.64 in experiment [5] and 0.14 in [6]. Besides, the inhibition in [3] was found to be 0%; in experiment [4], 4.2%; in experiment [7], 45.8%; in [10], 11.2%.
For `Cc1c2ccncc2c(C)c2c1[nH]c1ccccc12`, in experiment [13], the inhibition stood at 88.3%.
On to `CCN(CC)c1ccc2nc(-c3ccccc3C(F)(F)F)[nH]c(=O)c2c1`, for which the results for the IC50 in experiment [1], in [8] and in experiment [9] were 2.55 µM, 0.1 µM and 0.28 µM, respectively. The Ratio is 0.49 in experiment [2], 0.98 in experiment [5] and 0.11 in experiment [6]. The inhibition in experiment [4] came out at 13.3%; in experiment [7] it was 81.7%; in experiment [10] it was 9.4%.
Turning to `COc1cccc(-c2nc3cc(C)ccc3c(=O)[nH]2)c1`, the IC50 in experiment [1] was over 50 µM; in [8] it was 8.94 µM; in [9] it was 4.85 µM. Further, the Ratio in [2] stood at 2.6; in experiment [11] it was 0.5; in experiment [5] it was 1.29; in [6], 0.54. Besides, the inhibition in experiment [3] turned out to be 25.2%; in [4] it was 80%; in experiment [7] it was 100%; in [10], 43.6%.

These data come from ChEMBL document CHEMBL3632492, “Substituted 2-arylquinazolinones: Design, synthesis, and evaluation of cytotoxicity and inhibition of topoisomerases” (Eur J Med Chem, 2015).
